Test results: patent US8507489B2, “Bicyclic triazoles as protein kinase modulators” (SGX Pharmaceuticals, Inc., priority 2006, dated 2013)

Tests used:
GTL16 cells = assay: 96-well XTT cell survival assay (GTL16 cells); format: cell-based; conditions: Homo sapiens, GTL 16, 72 hours
Method in brief: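 GTL16 cells, 5000 per well, switched to assay medium the day before, then exposed to compound in duplicate for 72 h at 37 °C, 5% CO2. Viability by XTT/PMS reduction after a further 5 h, absorbance at 450 nm with 650 nm background correction.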

ABL1 T315I = ABL1 T315I (Homo sapiens, UniProt P00519, T315I); assay: SelectScreen Kinase Profiling ABL1 T315I; format: biochemical
From the text: (§1) SelectScreen™ is a trademark screening assay protocol for kinases developed by Invitrogen Corporation, Madison, Wis. Details on assay conditions can be found on the company's website.

AKT1 (PKB alpha) = AKT1 (PKB alpha) (Homo sapiens, UniProt P31749); assay: SelectScreen Kinase Profiling AKT1; format: biochemical
Sequence of AKT1 (PKB alpha) (P31749 whole entry): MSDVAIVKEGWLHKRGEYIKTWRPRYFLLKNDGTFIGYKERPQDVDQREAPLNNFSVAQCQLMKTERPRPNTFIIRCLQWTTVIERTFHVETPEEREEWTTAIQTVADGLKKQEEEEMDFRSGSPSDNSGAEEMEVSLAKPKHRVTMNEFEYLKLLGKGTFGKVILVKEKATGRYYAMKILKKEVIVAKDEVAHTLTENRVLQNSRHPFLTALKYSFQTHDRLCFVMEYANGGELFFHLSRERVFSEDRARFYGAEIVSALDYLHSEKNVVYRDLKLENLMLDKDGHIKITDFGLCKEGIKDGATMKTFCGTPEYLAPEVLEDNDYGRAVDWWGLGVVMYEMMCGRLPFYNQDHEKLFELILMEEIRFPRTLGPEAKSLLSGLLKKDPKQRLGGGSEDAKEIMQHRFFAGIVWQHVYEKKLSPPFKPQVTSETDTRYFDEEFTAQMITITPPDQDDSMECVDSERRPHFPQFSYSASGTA
From the text: as §1

AURKB (Aurora B) = AURKB (Aurora B) (Homo sapiens, UniProt Q96GD4); assay: SelectScreen Kinase Profiling AURKB; format: biochemical
From the text: as §1

BRAF V599E = BRAF V599E (Homo sapiens, UniProt P15056, V600E); assay: SelectScreen Kinase Profiling BRAF V599E; format: biochemical
From the text: as §1

CDK1/cyclin B = CDK1/cyclin B (Homo sapiens, UniProt P06493); assay: SelectScreen Kinase Profiling CDK1/cyclin B; format: biochemical
Sequence of CDK1/cyclin B (P06493 whole entry): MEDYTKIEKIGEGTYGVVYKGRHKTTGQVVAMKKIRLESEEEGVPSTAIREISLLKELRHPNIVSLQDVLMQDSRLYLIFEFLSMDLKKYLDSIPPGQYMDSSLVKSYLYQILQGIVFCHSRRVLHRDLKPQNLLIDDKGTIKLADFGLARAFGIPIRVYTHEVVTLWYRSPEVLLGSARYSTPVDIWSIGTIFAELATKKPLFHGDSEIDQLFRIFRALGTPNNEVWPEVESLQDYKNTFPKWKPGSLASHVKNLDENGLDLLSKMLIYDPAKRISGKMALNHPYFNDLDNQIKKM
Sequence of CDK1/cyclin B (P14635 whole entry partner): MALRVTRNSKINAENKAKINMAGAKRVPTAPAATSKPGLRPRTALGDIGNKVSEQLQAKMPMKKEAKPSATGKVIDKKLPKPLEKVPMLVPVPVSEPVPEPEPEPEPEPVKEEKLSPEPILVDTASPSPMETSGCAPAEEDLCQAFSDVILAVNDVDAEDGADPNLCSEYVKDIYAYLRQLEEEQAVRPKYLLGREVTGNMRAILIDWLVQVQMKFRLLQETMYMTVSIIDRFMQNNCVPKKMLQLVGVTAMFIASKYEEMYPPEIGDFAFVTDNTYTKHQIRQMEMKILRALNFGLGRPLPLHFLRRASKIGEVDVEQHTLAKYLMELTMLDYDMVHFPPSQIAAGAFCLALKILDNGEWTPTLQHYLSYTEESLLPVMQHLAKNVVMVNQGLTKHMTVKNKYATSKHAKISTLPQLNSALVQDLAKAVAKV
From the text: as §1

CSF1R (FMS) = CSF1R (FMS) (Homo sapiens, UniProt P07333); assay: SelectScreen Kinase Profiling CSF1R; format: biochemical
From the text: as §1

EGFR (ErbB1) = EGFR (ErbB1) (Homo sapiens, UniProt P00533); assay: SelectScreen Kinase Profiling EGFR; format: biochemical
Sequence of EGFR (ErbB1) (P00533 25-1210): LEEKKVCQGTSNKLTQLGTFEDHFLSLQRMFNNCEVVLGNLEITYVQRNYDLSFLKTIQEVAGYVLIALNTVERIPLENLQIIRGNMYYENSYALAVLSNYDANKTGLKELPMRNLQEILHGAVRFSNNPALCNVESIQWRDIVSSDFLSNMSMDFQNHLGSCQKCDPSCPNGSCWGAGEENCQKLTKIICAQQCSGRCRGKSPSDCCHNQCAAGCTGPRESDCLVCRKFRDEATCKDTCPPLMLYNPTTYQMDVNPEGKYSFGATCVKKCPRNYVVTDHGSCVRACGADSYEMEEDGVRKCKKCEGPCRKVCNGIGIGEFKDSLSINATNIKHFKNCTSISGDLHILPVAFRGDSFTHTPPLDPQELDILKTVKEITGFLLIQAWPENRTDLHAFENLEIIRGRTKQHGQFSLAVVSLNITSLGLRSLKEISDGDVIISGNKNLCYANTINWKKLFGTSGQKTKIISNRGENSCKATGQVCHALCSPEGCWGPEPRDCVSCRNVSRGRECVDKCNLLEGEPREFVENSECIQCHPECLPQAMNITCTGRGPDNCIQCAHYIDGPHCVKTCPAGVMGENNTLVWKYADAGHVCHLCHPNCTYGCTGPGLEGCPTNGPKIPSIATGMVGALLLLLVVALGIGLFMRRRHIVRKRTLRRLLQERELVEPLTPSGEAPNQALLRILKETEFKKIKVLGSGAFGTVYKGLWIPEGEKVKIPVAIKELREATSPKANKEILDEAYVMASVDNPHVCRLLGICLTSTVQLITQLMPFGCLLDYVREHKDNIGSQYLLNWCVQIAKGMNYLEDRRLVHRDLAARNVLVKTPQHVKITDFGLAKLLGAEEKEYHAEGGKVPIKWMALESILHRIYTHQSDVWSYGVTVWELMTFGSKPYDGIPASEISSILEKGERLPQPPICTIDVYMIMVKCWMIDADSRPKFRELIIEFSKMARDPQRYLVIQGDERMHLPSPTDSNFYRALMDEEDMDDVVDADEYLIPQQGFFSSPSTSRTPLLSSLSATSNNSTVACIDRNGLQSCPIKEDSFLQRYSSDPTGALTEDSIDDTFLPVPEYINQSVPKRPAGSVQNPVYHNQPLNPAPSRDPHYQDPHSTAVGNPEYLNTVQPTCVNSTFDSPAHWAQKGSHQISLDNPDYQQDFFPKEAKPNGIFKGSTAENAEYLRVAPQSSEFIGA
From the text: as §1

FES (FPS) = FES (FPS) (Homo sapiens, UniProt P07332); assay: SelectScreen Kinase Profiling FES; format: biochemical
Sequence of FES (FPS) (P07332 whole entry): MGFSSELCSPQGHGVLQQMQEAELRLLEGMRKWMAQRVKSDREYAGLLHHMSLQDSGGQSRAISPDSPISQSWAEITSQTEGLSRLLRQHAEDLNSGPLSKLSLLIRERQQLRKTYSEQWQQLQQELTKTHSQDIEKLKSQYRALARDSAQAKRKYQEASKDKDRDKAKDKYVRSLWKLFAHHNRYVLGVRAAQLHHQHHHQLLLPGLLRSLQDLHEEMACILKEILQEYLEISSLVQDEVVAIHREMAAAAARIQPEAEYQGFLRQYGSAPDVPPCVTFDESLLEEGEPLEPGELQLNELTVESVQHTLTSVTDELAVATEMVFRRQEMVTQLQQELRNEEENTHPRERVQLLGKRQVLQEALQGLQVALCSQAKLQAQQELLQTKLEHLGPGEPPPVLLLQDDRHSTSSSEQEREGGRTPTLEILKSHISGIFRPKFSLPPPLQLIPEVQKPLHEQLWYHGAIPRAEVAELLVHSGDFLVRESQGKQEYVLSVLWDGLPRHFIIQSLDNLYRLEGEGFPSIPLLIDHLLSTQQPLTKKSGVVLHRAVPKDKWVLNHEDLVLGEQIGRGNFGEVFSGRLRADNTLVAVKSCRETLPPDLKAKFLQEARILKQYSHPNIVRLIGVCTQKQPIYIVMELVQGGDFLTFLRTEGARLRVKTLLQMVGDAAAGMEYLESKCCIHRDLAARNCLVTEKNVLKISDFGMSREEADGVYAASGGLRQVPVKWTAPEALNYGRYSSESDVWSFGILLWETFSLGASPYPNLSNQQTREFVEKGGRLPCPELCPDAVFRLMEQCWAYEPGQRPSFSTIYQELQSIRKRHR
From the text: as §1

GRK4 = GRK4 (Homo sapiens, UniProt P32298); assay: SelectScreen Kinase Profiling GRK4; format: biochemical
From the text: as §1

IGF1R = IGF1R (Homo sapiens, UniProt P08069); assay: SelectScreen Kinase Profiling IGF1R; format: biochemical
From the text: as §1

IKBKB (IKK beta) = IKBKB (IKK beta) (Homo sapiens, UniProt O14920); assay: SelectScreen Kinase Profiling IKBKB; format: biochemical
From the text: as §1

KIT T670I = KIT T670I (Homo sapiens, UniProt P10721, T670I); assay: SelectScreen Kinase Profiling KIT T670I; format: biochemical
From the text: as §1

MAP2K1 (MEK1) = MAP2K1 (MEK1) (Homo sapiens, UniProt Q02750); assay: SelectScreen Kinase Profiling MAP2K1; format: biochemical
From the text: as §1

MAPK1 (ERK2) = MAPK1 (ERK2) (Homo sapiens, UniProt P28482); assay: SelectScreen Kinase Profiling MAPK1; format: biochemical
Sequence of MAPK1 (ERK2) (P28482 whole entry): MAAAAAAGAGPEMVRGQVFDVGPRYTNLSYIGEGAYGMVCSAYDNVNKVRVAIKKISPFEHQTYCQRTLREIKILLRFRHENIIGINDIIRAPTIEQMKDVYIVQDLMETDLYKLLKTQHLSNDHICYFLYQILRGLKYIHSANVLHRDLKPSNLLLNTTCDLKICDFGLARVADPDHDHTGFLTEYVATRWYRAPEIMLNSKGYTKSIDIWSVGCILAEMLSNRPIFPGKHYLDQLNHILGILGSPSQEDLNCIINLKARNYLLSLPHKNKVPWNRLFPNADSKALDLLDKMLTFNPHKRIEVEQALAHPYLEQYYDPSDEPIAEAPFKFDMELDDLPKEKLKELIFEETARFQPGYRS
From the text: as §1

MERTK (cMER) = MERTK (cMER) (Homo sapiens, UniProt Q12866); assay: SelectScreen Kinase Profiling MERTK; format: biochemical
From the text: as §1

MST1R (RON) = MST1R (RON) (Homo sapiens, UniProt Q04912); assay: SelectScreen Kinase Profiling MST1R; format: biochemical
From the text: as §1

PDGFRA T674I = PDGFRA T674I (Homo sapiens, UniProt P16234, T674I); assay: SelectScreen Kinase Profiling PDGFRA T674I; format: biochemical
From the text: as §1

PDK1 = PDK1 (Homo sapiens, UniProt O15530); assay: SelectScreen Kinase Profiling PDK1; format: biochemical
From the text: as §1

PIM1 = PIM1 (Homo sapiens, UniProt P11309); assay: SelectScreen Kinase Profiling PIM1; format: biochemical
From the text: as §1

PRKCD (PKC delta) = PRKCD (PKC delta) (Homo sapiens, UniProt Q05655); assay: SelectScreen Kinase Profiling PRKCD; format: biochemical
Sequence of PRKCD (PKC delta) (Q05655 whole entry): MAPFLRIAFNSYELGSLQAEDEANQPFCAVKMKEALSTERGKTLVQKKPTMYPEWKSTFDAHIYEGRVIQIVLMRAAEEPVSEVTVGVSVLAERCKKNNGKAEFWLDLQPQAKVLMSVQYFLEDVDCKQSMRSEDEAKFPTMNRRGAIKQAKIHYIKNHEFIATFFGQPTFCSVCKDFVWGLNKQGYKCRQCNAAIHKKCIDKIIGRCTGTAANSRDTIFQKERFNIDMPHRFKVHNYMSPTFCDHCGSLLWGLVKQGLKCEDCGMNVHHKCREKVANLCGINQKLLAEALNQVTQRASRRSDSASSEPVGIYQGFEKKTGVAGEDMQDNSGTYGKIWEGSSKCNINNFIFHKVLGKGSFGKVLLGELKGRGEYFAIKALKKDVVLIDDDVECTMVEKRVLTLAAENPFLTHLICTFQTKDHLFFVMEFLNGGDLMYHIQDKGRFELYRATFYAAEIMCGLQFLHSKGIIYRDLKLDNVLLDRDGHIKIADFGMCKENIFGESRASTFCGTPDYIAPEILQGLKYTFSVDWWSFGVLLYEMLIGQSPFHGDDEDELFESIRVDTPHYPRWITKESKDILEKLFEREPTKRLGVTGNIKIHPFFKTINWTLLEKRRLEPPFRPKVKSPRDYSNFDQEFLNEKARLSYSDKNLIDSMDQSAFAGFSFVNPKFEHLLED
From the text: as §1

RET = RET (Homo sapiens, UniProt P07949); assay: SelectScreen Kinase Profiling RET; format: biochemical
From the text: as §1

ROS1 = ROS1 (Homo sapiens, UniProt P08922); assay: SelectScreen Kinase Profiling ROS1; format: biochemical
From the text: as §1

RPS6KB1 (p70S6K) = RPS6KB1 (p70S6K) (Homo sapiens, UniProt P23443); assay: SelectScreen Kinase Profiling RPS6KB1; format: biochemical
Sequence of RPS6KB1 (p70S6K) (P23443 whole entry): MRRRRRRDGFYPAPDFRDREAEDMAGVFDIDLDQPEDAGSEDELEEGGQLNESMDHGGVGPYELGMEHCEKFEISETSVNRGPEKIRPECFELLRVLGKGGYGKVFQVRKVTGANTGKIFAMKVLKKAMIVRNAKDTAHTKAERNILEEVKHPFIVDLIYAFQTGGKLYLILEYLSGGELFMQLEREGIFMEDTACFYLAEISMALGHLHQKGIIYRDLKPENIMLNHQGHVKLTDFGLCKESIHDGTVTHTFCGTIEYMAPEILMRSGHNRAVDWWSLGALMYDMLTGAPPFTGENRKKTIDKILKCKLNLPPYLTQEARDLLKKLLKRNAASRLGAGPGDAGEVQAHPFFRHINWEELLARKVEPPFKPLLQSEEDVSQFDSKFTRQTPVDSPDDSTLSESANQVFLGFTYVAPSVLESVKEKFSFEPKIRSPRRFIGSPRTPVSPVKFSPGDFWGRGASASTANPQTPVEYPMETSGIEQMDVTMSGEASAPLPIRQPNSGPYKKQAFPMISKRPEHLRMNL
From the text: as §1

TEK (Tie2) = TEK (Tie2) (Homo sapiens, UniProt Q02763); assay: SelectScreen Kinase Profiling TEK; format: biochemical
From the text: as §1

GTL16 tumors = assay: GTL16 tumor xenograft model, tumor growth; format: in vivo; conditions: last day of treatment, nude mice
Procedure: Female athymic nude mice (nu/nu from Harlan) were 6-8 weeks old with a body weight range of 18-22 g at the beginning of the study. The animals had free access to food and water throughout the study. The mice were housed on irradiated Alpha-Dri® Bed-O-Cobs® Laboratory Animal Bedding in static micro isolator caging on a 12-hour light cycle at 70-74° F. and 40-60% humidity. All procedures involving animals were conducted in compliance with the NIH Guide for the Care and Use of Laboratory Animals and all protocols were approved by an Internal Animal Care and Use Committee (IACUC).
Xenografts were initiated from GTL-16 tumor cells cultured and maintained by an internal Cell Biology Department. Each test mouse received a subcutaneous injection of 4×10^6 cells suspended in 100 μL of serum free RPMI media. Tumors were randomized into treatment groups on Day 5 when the average tumor size reached approximately 150 mm^3. Each dose groups contained n=5 mice. Tumor volume was calculated using the formula:
[formula] where w=width and l=length in mm of the tumor. Tumor weight may be estimated with the assumption that 1 mg is equivalent to 1 mm^3 of tumor volume. Tumor Growth Inhibition (TGI) Analysis
TGI was calculated from the difference between the mean tumor volumes of vehicle-treated and drug-treated mice, expressed as a percentage. % TGI=Mean Tumor Volumecontrol−Mean Tumor Volumedrug-treated×100 […] Tumor Volumecontrol
The MTV is defined as the mean tumor volume (MTV) for the number of animals, n, remaining in the study on that day.

Cn1cc(-c2ccc3nnc(Sc4ccc5ncccc5c4)n3n2)cn1 [Compound 4, 6-[6-(1-Methyl-1H-pyrazol-4-yl)-[1,2,4]triazolo[4,3-b]pyridazin-3-ylsulfanyl]-quinoline]
IC50 (GTL16 cells): ≤ 100 nM
inhibition at 1 µM (ABL1 T315I): 11%
inhibition at 1 µM (AKT1 (PKB alpha)): 5%
inhibition at 1 µM (AURKB (Aurora B)): 7%
inhibition at 1 µM (BRAF V599E): 36%
inhibition at 1 µM (CDK1/cyclin B): 5%
inhibition at 1 µM (CSF1R (FMS)): 19%
inhibition at 1 µM (EGFR (ErbB1)): -2%
inhibition at 1 µM (FES (FPS)): 5%
inhibition at 1 µM (GRK4): 2%
inhibition at 1 µM (IGF1R): -3%
inhibition at 1 µM (IKBKB (IKK beta)): -5%
inhibition at 1 µM (KIT T670I): -12%
inhibition at 1 µM (MAP2K1 (MEK1)): 16%
inhibition at 1 µM (MAPK1 (ERK2)): 9%
inhibition at 1 µM (MERTK (cMER)): 7%
inhibition at 1 µM (MST1R (RON)): 9%
inhibition at 1 µM (PDGFRA T674I): -9%
inhibition at 1 µM (PDK1): 7%
inhibition at 1 µM (PIM1): 4%
inhibition at 1 µM (PRKCD (PKC delta)): 4%
inhibition at 1 µM (RET): 5%
inhibition at 1 µM (ROS1): 7%
inhibition at 1 µM (RPS6KB1 (p70S6K)): 3%
inhibition at 1 µM (TEK (Tie2)): 8%
decrease of mean tumor volume compared to vehicle-treated group (GTL16 tumors; 10 mg/kg PO Q12H, 14 consecutive days): 65%
decrease of mean tumor volume compared to vehicle-treated group (GTL16 tumors; 20 mg/kg PO Q12H, 14 consecutive days): 75%
decrease of mean tumor volume compared to vehicle-treated group (GTL16 tumors; 30 mg/kg PO Q12H, 14 consecutive days): 81%
decrease of mean tumor volume compared to vehicle-treated group (GTL16 tumors; 60 mg/kg PO Q24H, 14 consecutive days): 75%
decrease of mean tumor volume compared to vehicle-treated group (GTL16 tumors; 100 mg/kg PO Q12H, 14 consecutive days): 87%

Cc1ccc2nnc(Sc3ccc4ncc(-c5cnn(C)c5)cc4c3)n2n1 [Compound 41, 3-(1-Methyl-1H-pyrazol-4-yl)-6-(6-methyl-[1,2,4]triazolo[4,3-b]pyridazin-3-ylsulfanyl)-quinoline]
IC50 (GTL16 cells): ≤ 100 nM
inhibition at 1 µM (ABL1 T315I): 47%
inhibition at 1 µM (AKT1 (PKB alpha)): -1%
inhibition at 1 µM (AURKB (Aurora B)): 61%
inhibition at 1 µM (BRAF V599E): 7%
inhibition at 1 µM (CDK1/cyclin B): 17%
inhibition at 1 µM (CSF1R (FMS)): 79%
inhibition at 1 µM (EGFR (ErbB1)): 0%
inhibition at 1 µM (FES (FPS)): 1%
inhibition at 1 µM (GRK4): -4%
inhibition at 1 µM (IGF1R): 6%
inhibition at 1 µM (IKBKB (IKK beta)): 1%
inhibition at 1 µM (KIT T670I): 4%
inhibition at 1 µM (MAP2K1 (MEK1)): 3%
inhibition at 1 µM (MAPK1 (ERK2)): 0%
inhibition at 1 µM (MERTK (cMER)): 10%
inhibition at 1 µM (MST1R (RON)): 53%
inhibition at 1 µM (PDGFRA T674I): -1%
inhibition at 1 µM (PDK1): 6%
inhibition at 1 µM (PIM1): 0%
inhibition at 1 µM (PRKCD (PKC delta)): 5%
inhibition at 1 µM (RET): 21%
inhibition at 1 µM (ROS1): 41%
inhibition at 1 µM (RPS6KB1 (p70S6K)): 5%
inhibition at 1 µM (TEK (Tie2)): 4%
decrease of mean tumor volume compared to vehicle-treated group (GTL16 tumors; 1 mg/kg PO Q12H, 13 consecutive days): 42%
decrease of mean tumor volume compared to vehicle-treated group (GTL16 tumors; 3 mg/kg PO Q12H, 13 consecutive days): 67%
decrease of mean tumor volume compared to vehicle-treated group (GTL16 tumors; 10 mg/kg PO Q12H, 13 consecutive days): 80%
decrease of mean tumor volume compared to vehicle-treated group (GTL16 tumors; 30 mg/kg PO Q12H, 13 consecutive days): 87%
